Biological target: T1, Dihydrofolate reductase (Bos taurus) (UniProt P00376)
T1 sequence (whole entry): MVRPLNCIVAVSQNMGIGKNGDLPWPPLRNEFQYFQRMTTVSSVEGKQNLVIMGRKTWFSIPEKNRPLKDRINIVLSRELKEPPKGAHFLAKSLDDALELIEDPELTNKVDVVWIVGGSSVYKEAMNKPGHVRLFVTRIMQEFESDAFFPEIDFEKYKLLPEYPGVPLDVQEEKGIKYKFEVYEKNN
Description: Inhibition of bovine liver dihydrofolate reductase using dihydrofolic acid as substrate

Compound | log(1/I50)
COc1cccc(Cc2cnc(N)nc2N)c1 | 5.02
Nc1ncc(Cc2ccc(OC(F)(F)F)cc2)c(N)n1 | 4.99
Nc1ccc(Cc2cnc(N)nc2N)cc1 | 4.57
CC(=O)Nc1ccc(Cc2cnc(N)nc2N)cc1[N+](=O)[O-] | 5.16
Cc1ccc(Cc2cnc(N)nc2N)cc1 | 4.8
Nc1ncc(Cc2cccc(C(F)(F)F)c2)c(N)n1 | 5.53
COc1ccc(Cc2cnc(N)nc2N)cc1OC | 5.15

Source: ChEMBL document CHEMBL3227947, “Quantitative structure-activity relationship of 5-(X-benzyl)-2,4-diaminopyrimidines inhibiting bovine liver dihydrofolate reductase” (J Med Chem, 1979)
